From patent US9267949B2, “Alkylamino BODIPY dyes as selective fluorescent probes for proteins and mouse embryonic stem cells” (National University of Singapore, priority 2011, dated 2016)

Columns and labels:
human IgG [1] = test: Surface plasmon resonance on immobilized immunoglobulin chip; format: binding; conditions: 25° C., read-out: KD (SPR, steady-state model)
Text: The following experiments were aimed at determining the dissociation constant of the interaction between Ig Orange and human IgG. Surface Plasmon Resonance (SPR) has been extensively used to measure the binding constants between small molecules and biopolymers, 25 and we modified human IgG with biotin so that it could be immobilized on a neutravidin-coated sensor chip. Upon immobilization of the biotinylated protein on a neutravidin-coated sensor chip CM7, we performed Ig Orange titrations in duplicate with increasing concentrations of the small molecule.
Human IgG (5.0 mg, 0.033 μmol) and biotin-OSu (0.11 mg, 0.33 μmol) were dissolved in 0.1 M NaHCO3 (pH 8.5) and shaken for 1 h at 25° C. […] The fluorescence response of Ig Orange to IgG and biotinylated IgG was compared (FIG. 5). The concentration of biotinylated IgG before fluorescence and SPR experiments was determined by Bradford assay. […] Job Plot Analysis: Ig Orange (final concentrations: 0, 1.6, 3.2, 4.8, 6.4, 8.0, 9.6, 11.2, 12.8, 14.4, 16 μM) and human IgG (final concentrations: 16, 14.4, 12.8, 11.2, 9.6, 8.0, 6.4, 4.8, 3.2, 1.6, 0 μM) were incubated in PBS buffer (pH 7.3) containing 1% DMSO, and the fluorescence intensities of the different solutions were recorded on a SpectraMax M2 plate reader (excitation: 530 nm; emission: 590 nm). […]

human IgG [2] = test: Structure-fluorescence relationships: Ig Orange vs BD-69 with human IgG; format: binding; conditions: 10 μM each, 20 mM HEPES pH 7.4
Method: Ig Orange (BDM-69) (10 μM) and BD-69 (10 μM) were incubated with different concentrations of human IgG in 20 mM HEPES buffer (pH 7.4) and the fluorescence intensities were recorded on a SpectraMax M2 plate reader (excitation: 530 nm; emission: 590 nm), as shown in FIG. 7a. Values are represented as means (n=3) of the fluorescence fold increase after incubation with the protein.

human IgG [3] = test: Screening the BDM library: fluorescence response against proteins and peptides; format: binding; conditions: 10 μM dye
Method: Fluorescence intensities were measured using a Spectra Max Gemini XSF plate reader in a 384-well plate. BDM compounds were dissolved to a final concentration of 10 μM (20 mM HEPES buffer, pH 7.4, containing 1% DMSO) and incubated with different proteins and peptides at different serial concentrations in 20 mM HEPES buffer (pH 7.4) (FIG. 1a). The excitation wavelength was set at 510 nm, and the emission spectra were recorded from 560 to 700 nm. Fluorescence fold increase ratios were determined by referring the maximum fluorescence intensity emission of BDM compounds in the presence of the screened proteins and peptides to the maximum fluorescence intensity emission of BDM compounds in 20 mM HEPES buffer (pH 7.4) (FIG. 1b).

human IgG [4] = test: Fluorescence-based fractional saturation curve; conditions: 10 μM dye, 20 mM HEPES pH 7.4, exc 530 nm, em 590 nm; read-out: dissociation constant Kd (fluorescence binding saturation curve)
Method: Ig Orange (10 μM) was incubated with different concentrations of human IgG in 20 mM HEPES buffer (pH 7.4) and the fluorescence intensities were recorded on a SpectraMax M2 plate reader (excitation: 530 nm; emission: 590 nm) (FIG. 9).

[5] = tested on: Fab and Fc fragments of human IgG1; test: Fluorescence increase with Fab and Fc fragments; format: binding; conditions: Fab vs Fc fragments of human monoclonal IgG1
Method: FIGS. 6a and 6b show binding sensorgrams of Ig Orange (0.07, 0.21, 0.62, 1.86, 5.57 and 16.70 μM) upon injection across an immobilized immunoglobulin chip, which were fit using the equilibrium responses of a steady-state model. […] Values are represented as means (n=3) and error bars as standard deviations.
In order to identify the region of human IgG to which Ig Orange binds, we evaluated the fluorescence response of Ig Orange in the presence of human polyclonal IgG and monoclonal IgG1, the most abundant subtype. […] To confirm this observation and determine the stoichiometry of the complex between Ig Orange and the full immunoglobulin, we analyzed the interaction by means of a Job plot. A maximum fluorescence increase was detected for a 2:1 Ig Orange:immunoglobulin ratio, which supported our observation that the preferred binding region of Ig Orange corresponded to the Fab fragments of the immunoglobulin (FIG. 7b). […] With this first adaptation of the BODIPY scaffold to a solid-phase approach we accelerated the development of alkylamino BODIPY-based fluorescent probes, being Ig Orange the first immunoglobulin fluorescent sensor.

[6] = Spectroscopic properties of the BDM library (absorbance and emission maxima); format: physicochemical
[7] = Quantum yield measurements; format: physicochemical; conditions: referred to Rhodamine B in EtOH, excitation 510 nm, emission integrated 540-800 nm
How it was run: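 Integrated fluorescence emission from 540 to 800 nm was referenced to Rhodamine B in EtOH (Φ=0.70) after excitation at 510 nm. Quantum yield was calculated with correction for solvent refractive index and absorbance at the excitation wavelength.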

Kd (human IgG [1]): 71.7 ± 0.6 µM
Kd (human IgG [4]): 14.1 ± 0.9 µM
preferred binding region of the immunoglobulin [5]: preferred binding to the Fab region
λmax (ABS) [6]: 574 nm
λmax (EM) [6]: 594 nm
φ (quantum yield) [7]: 0.32
Compound: CC1=CC(/C=C/c2ccc(/C=C/c3ccccc3)cc2)=[N+]2C1=C(CCN)c1cccn1[B-]2(F)F [BDM-69]
higher fluorescence increase of Ig Orange relative to BD-69 vs. human IgG (human IgG [2]): 15 fold
turn-on fluorescence increase in the presence of human IgG (human IgG [3]; 20 mM HEPES buffer pH 7.4): 75 fold
selectivity profile against proteins and peptides (human IgG [3]; 20 mM HEPES pH 7.4, exc 510 nm): best selectivity profile among the whole library
